Activity calls are given as the source filed them. The calls are words filed in the database; no cut-off is given here.
How the values were obtained:
[1] = system: MEF; assay: Effect on WNT-3A induced Axin2 mRNA expression in mouse MEF cells at 10 uM stimulated with WNT-3A prior to compound addition and measured after 24 hrs by qPCR analysis; format: functional, cell-based
[2] = Inhibition of firefly luciferase expression in deltaFZD1-10 HEK293 cells incubated for 24 hrs by microplate reader analysis; format: functional, cell-based; details: Homo sapiens, HEK293, 24 h
[3] = system: HEK293; assay: Inhibition of Wnt/beta-catenin signalling in deltaFZD1-10 HEK293 cells transfected with HiBit-FZD7 assessed as reduction in topflash signal at 10 uM incubated for 24 hrs by dual luciferase reporter assay; format: cell-based; details: Homo sapiens
[4] = system: HEK293; assay: Inhibition of Wnt/beta-catenin signalling in deltaFZD1-10 HEK293 cells transfected with FZD7-DEP-Clamp assessed as effect on WNT-3A induced FZD7-DEP-Clamp signal using furimazine as substrate at 10 uM preincubated for 10 mins followed by WNT-3A stimulation and measured every 2 mins for 1 hr by luminescence based analysis; format: cell-based; details: Homo sapiens, time 70.0 min
[5] = system: HEK293; assay: Effect on renilla luciferase level deltaFZD1-10 HEK293 cells assessed as reduction in Rluc-bioluminescence at 0.1 to 1000 nM incubated for 24 hrs by luminescence based analysis; format: functional, cell-based; details: Homo sapiens, dose 0.1-1000 nM
[6] = system: HEK293; assay: Inhibition of firefly luciferase expression in deltaFZD1-10 HEK293 cells assessed as reduction in bioluminescence incubated for 24 hrs by microplate reader analysis; format: functional, cell-based; details: Homo sapiens, dose 0.1-1000 nM
[7] = Inhibition of Wnt/beta-catenin signalling in deltaFZD1-10 HEK293 cells transfected with HiBit-FZD7 assessed as inhibition of CHIR99021-induced TOPFlash ratio incubated for 24 hrs by dual luciferase reporter assay; format: cell-based; details: Homo sapiens, HEK293, 24 h
[8] = system: HEK293; assay: Effect on Nano-luciferase activity in deltaFZD1-10 HEK293 cells at 0.1 to 1000 nM incubated for 24 hrs under TK promoter by luminescence based analysis; format: functional, cell-based; details: Homo sapiens, dose 0.1-1000 nM
[9] = system: HEK293; assay: Inhibition of Wnt/beta-catenin signalling in deltaFZD1-10 HEK293 cells transfected with HiBit-FZD7 assessed as reduction in Wnt3a induced topflash signal at 10 uM pre-stimulated with Wnt3a followed by compound addition and measured after 24 hrs by dual luciferase reporter assay; format: cell-based; details: Homo sapiens

IC50 [2]: 23.7 nM
IC50 ([7]; read-out: IC50): 33 nM
IC50 ([7]; read-out: pIC50 (converted)): 33.9 nM
Compound: Cc1ccc(C(=O)Nc2ccc(SCC(=O)Nc3nc(-c4ccccc4)cs3)cc2)c(C)c1
Activity [1]: inactive
inhibition [3]: Active
inhibition [4]: inactive
Activity [5]: inactive
inhibition [6]: Dose-dependent-effect
Activity [8]: inactive
inhibition [9]: Active

— ChEMBL document CHEMBL6120990, “A Putative Frizzled 7-Targeting Compound Acts as a Firefly Luciferase Inhibitor” (J Med Chem, 2024)
